Source: paper PMC6720901, “Psoromic Acid, a Lichen-Derived Molecule, Inhibits the Replication of HSV-1 and HSV-2, and Inactivates HSV-1 DNA Polymerase: Shedding Light on Antiherpetic Properties” (Molecules, 2019)
Read-outs that look alike come from different tables or passages of the source.

Legend:
HSV-1 DNA polymerase = target: T1, HSV-1 DNA polymerase (Human herpesvirus 1, UniProt P04292); experiment: Radiolabeled nucleotide-based HSV-1 DNA polymerase inhibition assay; type: biochemical; conditions: for type of inhibition: ascertained with Cheng–Prusoff equation; for IC50: 37 °C, 30 min; for Ki: calculated by Cheng–Prusoff equation
T1 construct: HSV-1 DNA polymerase was extracted from HSV-1-infected Vero cells; made in house; host or cells: Vero cells infected with HSV-1 (KOS strain); virus-encoded native enzyme, purified on DEAE-cellulose and phosphate cellulose columns
Method: HSV-1 DNA polymerase was extracted from HSV-1-infected Vero cells following the procedure as previously designated. Briefly, Vero cells were infected with HSV-1 (KOS strain) at a multiplicity of infection (MOI) equal to 5.0 for 12 h. Afterward, the infected cells were lysed with a buffer containing 0.25 M potassium phosphate (pH = 7.5), 10 mM 2-mercaptoethanol (2-ME), 1mM EDTA, 0.5% Triton X-100, 0.5 mM phenylmethane sulfonylfluoride (PMSF), and 20% glycerol, and subsequently sonicated and centrifuged at 10,000× g for 10 min at 4 °C. The resulting supernatant was additionally centrifuged at 100,000× g for 90 min at 4 °C and the supernatant was dialyzed against 10 mM potassium phosphate (pH = 7.5) with 10 mM 2-ME, 1mM EDTA, and 20% glycerol. Then, the obtained material was eluted in two ion-exchange chromatography columns (DEAE-cellulose and phosphate cellulose) (Sigma-Aldrich, Prague, Czech Republic) supplemented with potassium phosphate ([…]) as previously described.
Extracted HSV-1 DNA polymerase was evaluated for its purity and possible contamination with cellular enzymes such as type B DNA polymerase (α and δ polymerases) using polyclonal antibodies raised against these cellular enzymes following the procedure as previously described. The confirmation of the purity of HSV-1 DNA polymerase was achieved by using a kinetic assay in the presence or absence of ammonium sulfate (100 mM; an inhibitor of possible contaminant cellular polymerases) following the previously reported protocol.
A radiolabeled nucleotide-based assay was used to evaluate the inhibitory properties of PA along with the standard drugs aphidicolin (a known competitive inhibitor of HSV-1 DNA polymerase with respect to dTTP incorporation; purchased from Sigma-Aldrich, Prague, Czech Republic with purity ≥98%) and ACV triphosphate (ACV-TP) (a known competitive inhibitor of HSV-1 DNA polymerase with respect to dGTP incorporation; obtained from Sierra Bioresearch (Tucson, AZ, USA) with purity >98%) against HSV-1 DNA polymerase based on the incorporation of dTTP as a substrate with some modifications. Briefly, the enzyme assay was performed following the first-order kinetics conditions, where the enzymatic reaction initiated by pre-incubating 3 U/mL of HSV-1 DNA polymerase with a mixture containing 50 mM Tris-HCl (pH = 8), MgCl2 (8 mM), DTT (0.5 mM), bovine serum albumin (0.5 µg/mL), ammonium sulfate (100 mM; an inhibitor of possible contaminant cellular polymerases), 100 µM of each nucleotide (dATP, dGTP, dCTP, and [^3H]-dTTP—0.5 µCi/nmol) (obtained from MUH, Prague, Czech Republic) and activated salmon-sperm DNA (12 µg/mL). […] [^3H]-dGTP—0.5 µCi/nmol (obtained from MUH, Prague, Czech Republic) was used when the enzymatic assay was performed with ACV-TP.
The obtained mixture was further incubated with the test compounds (at concentrations ranging from 0.1 to 3 µM) at 37 °C for 30 min and afterward, the reaction was stopped by adding trichloroacetic acid (TCA; 10%). The resulting radioactivity was adsorbed over GF/C fiberglass membranes (Whatman; Sigma-Aldrich, Berlin, Germany) and counted by liquid scintillation (Tri-Carb 2600, Packard Inc., Downers Grove, IL, USA). All measurements were conducted in triplicate and IC50 values were calculated by nonlinear regression. Ki values (inhibition constant; concentration required to produce half maximum inhibition) were calculated using the Cheng–Prusoff equation as previously described.

[1] = Cytotoxicity on Vero cells by neutral red dye-uptake assay; type: cell-based; conditions: African green monkey, Vero cell monolayers, neutral red dye uptake (Table 1)
Method: The cytotoxic effect of standard PA (purity >98%; kindly obtained from University of Chemistry and Technology Prague, Prague, Czech Republic), PA in combination with ACV (Sigma-Aldrich, Berlin, Germany) as well as standard ACV on Vero cells was assessed using the neutral red dye-uptake assay as previously described with slight modification. Briefly, the test compounds were dissolved in 0.2% dimethyl sulfoxide (DMSO). Further, stock solutions were prepared in deionized water and sterilized at a concentration of 620 μM. Vero cell monolayers cultivated in 96-well microtiter plates with two-fold serial dilutions of the test compounds were incubated for 48 h at 37°C in 5% CO2. After incubation, the morphological alterations of the treated cells were assessed using an inverted optical microscope (Leitz, Wetzlar, Germany) and the maximum non-toxic concentrations (MNTC) were determined. The concentrations of test substances that are necessary to decrease the cell viability by 50% (CC50) were assessed as compared with the untreated control cells. In order to acquire statistically relevant data for final evaluation, the cytotoxicity of test compounds was measured in at least three independent experiments conducted in duplicate.

HSV-1 strain KOS = experiment: Anti-HSV-1 plaque reduction assay in infected Vero cells; type: cell-based, herpes simplex virus type 1 (HSV-1); conditions: for IC50: 72 h; for SI (CC50/IC50): selectivity index, Vero CC50 / HSV-1 IC50
Method: Vero cells were infected with HSV-1 strain KOS (an ACV-sensitive strain) obtained from MUH, Prague, Czech Republic and propagated in Vero cells. Viral stocks were then titrated based on plaque forming unit (PFU) count by plaque assay as previously described. Viral stocks were stored at −80^◦C for further use.
The inhibitory activity against the replication of HSV-1 was evaluated using a plaque reduction assay as previously described. ACV was used as a reference drug. Briefly, cell monolayers were infected with 100 PFU of HSV-1 in MEM containing 1.5% carboxymethyl cellulose (CMC, Sigma-Aldrich, Berlin, Germany) in the presence or absence of test compounds at different concentrations. Afterward, the cells were subjected to incubation for 72 h at 37 °C, then fixed and stained using naphthol blue-black (Sigma-Aldrich, Berlin, Germany). Subsequently, the plaques were counted. IC50 values (concentrations of test compounds required to decrease the number of plaques by 50%) were determined as compared with untreated control cells. A selectivity index (SI) value was calculated as the ratio CC50/IC50.

T1 sequence (P04292 whole entry): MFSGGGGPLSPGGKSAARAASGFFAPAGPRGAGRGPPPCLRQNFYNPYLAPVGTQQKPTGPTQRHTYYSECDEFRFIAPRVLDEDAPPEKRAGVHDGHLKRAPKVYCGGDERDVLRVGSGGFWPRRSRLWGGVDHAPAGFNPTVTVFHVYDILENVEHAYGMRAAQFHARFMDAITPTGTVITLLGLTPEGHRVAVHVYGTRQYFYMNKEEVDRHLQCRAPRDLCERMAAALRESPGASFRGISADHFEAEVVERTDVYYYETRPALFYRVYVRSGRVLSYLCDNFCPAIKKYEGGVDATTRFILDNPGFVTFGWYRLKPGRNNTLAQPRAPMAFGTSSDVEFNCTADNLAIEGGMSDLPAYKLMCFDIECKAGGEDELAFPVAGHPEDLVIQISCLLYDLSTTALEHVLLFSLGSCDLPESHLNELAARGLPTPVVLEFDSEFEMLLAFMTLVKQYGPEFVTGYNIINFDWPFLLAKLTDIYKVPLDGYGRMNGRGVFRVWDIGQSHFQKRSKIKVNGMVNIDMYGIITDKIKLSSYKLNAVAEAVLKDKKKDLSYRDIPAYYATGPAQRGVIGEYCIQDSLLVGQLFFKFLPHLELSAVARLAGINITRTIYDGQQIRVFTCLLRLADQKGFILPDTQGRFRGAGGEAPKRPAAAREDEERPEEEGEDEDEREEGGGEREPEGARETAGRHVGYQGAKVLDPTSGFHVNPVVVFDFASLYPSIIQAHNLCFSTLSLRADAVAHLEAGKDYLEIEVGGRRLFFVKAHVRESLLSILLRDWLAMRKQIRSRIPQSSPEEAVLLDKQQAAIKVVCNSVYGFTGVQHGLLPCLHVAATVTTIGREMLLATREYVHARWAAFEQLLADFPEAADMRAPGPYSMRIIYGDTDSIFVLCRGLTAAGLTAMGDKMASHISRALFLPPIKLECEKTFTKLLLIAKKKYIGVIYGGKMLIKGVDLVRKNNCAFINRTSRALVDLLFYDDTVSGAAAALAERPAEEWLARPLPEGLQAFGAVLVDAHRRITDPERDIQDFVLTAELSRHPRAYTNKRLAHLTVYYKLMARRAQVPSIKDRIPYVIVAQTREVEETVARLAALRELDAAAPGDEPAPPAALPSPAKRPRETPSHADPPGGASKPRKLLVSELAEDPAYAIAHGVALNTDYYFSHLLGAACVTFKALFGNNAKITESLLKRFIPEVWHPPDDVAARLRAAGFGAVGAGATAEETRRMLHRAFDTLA

SMILES | type of inhibition (HSV-1 DNA polymerase) | IC50 (HSV-1 DNA polymerase; with respect to dGTP incorporation ([3H]-dGTP)) | Ki (HSV-1 DNA polymerase; with respect to dGTP incorporation) | CC50 at 48 h [1] | IC50 (HSV-1 strain KOS; Human alphaherpesvirus 1, HSV-1 replication, plaque reduction, Vero cells, read-out: IC50) | SI (CC50/IC50) (HSV-1 strain KOS) | IC50 (HSV-1 strain KOS; Human alphaherpesvirus 1, Vero) | IC50 (HSV-1 DNA polymerase; with respect to dTTP incorporation ([3H]-dTTP)) | Ki (HSV-1 DNA polymerase; with respect to dTTP incorporation)
Nc1nc2c(ncn2COCCOP(=O)(O)OP(=O)(O)OP(=O)(O)O)c(=O)[nH]1 [ACV-TP, acyclovir triphosphate] | competitive inhibitors | 900 ± 630 nM | 500 ± 340 nM | – | – | – | – | – | –
Nc1nc2c(ncn2COCCO)c(=O)[nH]1 [ACV, acyclovir] | – | – | – | > 310000 nM | 2600 ± 380 nM | >119.2 | – | – | –
COc1cc(C(=O)O)c2c(c1C)OC(=O)c1c(C)cc(O)c(C=O)c1O2 [PA, Psoromic acid] | competitive inhibitors | – | – | > 310000 nM | – | >163.2 | 1900 ± 420 nM | 700 ± 510 nM | 300 ± 420 nM
